Experiments:
[1] = biological target: T1, Tryptophan 2,3-dioxygenase (Homo sapiens, UniProt P48775); assay: (§1) Inhibition of N-terminal hexa-histidine tagged human TDO (19 to 388 residues) expressed in Escherichia coli Transetta (DE3) using L-tryptophan as substrate at 100 uM preincubated with enzyme for 10 mins followed by substrate addition and measured after 30 to 60 mins by microplate reader analysis relative to control; details: time 40-70 min
Target sequence in this assay (P48775 whole entry, looked up, the tested form may be a part): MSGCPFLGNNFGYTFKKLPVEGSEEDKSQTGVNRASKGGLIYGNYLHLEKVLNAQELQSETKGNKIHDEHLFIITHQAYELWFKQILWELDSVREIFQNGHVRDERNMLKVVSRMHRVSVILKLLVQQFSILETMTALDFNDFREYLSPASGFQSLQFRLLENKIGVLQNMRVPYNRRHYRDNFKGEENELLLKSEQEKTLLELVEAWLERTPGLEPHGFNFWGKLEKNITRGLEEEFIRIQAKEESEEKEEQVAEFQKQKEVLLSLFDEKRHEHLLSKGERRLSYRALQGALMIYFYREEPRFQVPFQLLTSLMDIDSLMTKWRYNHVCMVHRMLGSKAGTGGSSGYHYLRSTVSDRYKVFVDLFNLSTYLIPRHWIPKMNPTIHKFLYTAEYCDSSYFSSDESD

[2] = biological target: T1, Tryptophan 2,3-dioxygenase; assay: as §1, with “10” for “100”; details: time 40-70 min
Target sequence in this assay (P48775 whole entry, looked up, the tested form may be a part): as above

[3] = biological target: T1, Tryptophan 2,3-dioxygenase; assay: Inhibition of N-terminal hexa-histidine tagged human TDO (19 to 388 residues) expressed in Escherichia coli Transetta (DE3) using L-tryptophan as substrate preincubated with enzyme for 10 mins followed by substrate addition and measured after 30 to 60 mins by microplate reader analysis
Target sequence in this assay (P48775 whole entry, the tested form may be a part): as the sequence (P48775 whole entry, looked up, the tested form may be a part) above

[4] = biological target: T2, Indoleamine 2,3-dioxygenase 1 (Homo sapiens, UniProt P14902); assay: as §1, with “IDO1 (12” for “TDO (19”, “403” for “388”; details: time 40-70 min
Target sequence in this assay (P14902 whole entry, looked up): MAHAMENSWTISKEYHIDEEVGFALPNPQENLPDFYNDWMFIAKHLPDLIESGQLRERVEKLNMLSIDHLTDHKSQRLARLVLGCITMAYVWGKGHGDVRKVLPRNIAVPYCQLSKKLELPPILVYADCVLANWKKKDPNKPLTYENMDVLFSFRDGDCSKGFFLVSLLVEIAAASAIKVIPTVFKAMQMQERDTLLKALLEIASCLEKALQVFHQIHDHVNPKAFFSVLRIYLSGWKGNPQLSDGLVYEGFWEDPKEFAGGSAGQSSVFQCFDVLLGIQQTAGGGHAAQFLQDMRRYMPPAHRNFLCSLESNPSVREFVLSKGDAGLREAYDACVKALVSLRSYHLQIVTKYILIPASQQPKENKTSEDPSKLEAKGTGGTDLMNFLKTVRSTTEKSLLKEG

[5] = biological target: T2, Indoleamine 2,3-dioxygenase 1; assay: as §1, with “IDO1 (12” for “TDO (19”, “403” for “388”, “10” for “100”; details: time 40-70 min
Target sequence in this assay (P14902 whole entry, looked up): as above

[6] = biological target: T2, Indoleamine 2,3-dioxygenase 1; assay: Inhibition of N-terminal hexa-histidine tagged human IDO1 (12 to 403 residues) expressed in Escherichia coli Transetta (DE3) using L-tryptophan as substrate preincubated with enzyme for 10 mins followed by substrate addition and measured after 30 to 60 mins by microplate reader analysis
Target sequence in this assay (P14902 whole entry): as the sequence (P14902 whole entry, looked up) above

HepG2 = assay: Cytotoxicity against human HepG2 cells assessed as inhibition of cell growth incubated for 24 hrs by MTT assay; format: functional, cell-based; details: HepG2, 24 h
[7] = Cytotoxicity against […] cells assessed as inhibition of cell growth incubated for 24 hrs by MTT assay; format: functional, cell-based; details: Mus musculus, Hepa1-6, 24 h
H22 = assay: Cytotoxicity against mouse H22 cells assessed as inhibition of cell growth incubated for 24 hrs by MTT assay; format: functional, cell-based; details: H22, 24 h
B16 = assay: Cytotoxicity against mouse B16 cells assessed as inhibition of cell growth incubated for 24 hrs by MTT assay; format: functional, cell-based; details: B16, 24 h
MOLM-13 = assay: Cytotoxicity against human MOLM-13 cells assessed as inhibition of cell growth incubated for 24 hrs by MTT assay; format: functional, cell-based; details: MOLM-13, 24 h
Jurkat = assay: Cytotoxicity against human Jurkat cells assessed as inhibition of cell growth incubated for 24 hrs by MTT assay; format: functional, cell-based

| inhibition [1] [%] | inhibition [2] [%] | IC50 [3] [µM] | inhibition [4] [%] | inhibition [5] [%] | IC50 [6] [µM] | Structure (SMILES) | IC50 (HepG2) [µM] | IC50 [7] [µM] | IC50 (H22) [µM] | IC50 (B16) [µM] | IC50 (MOLM-13) [µM] | IC50 (Jurkat) [µM] |
| --- | --- | --- | --- | --- | --- | --- | --- | --- | --- | --- | --- | --- |
| 90 | 69 | 0.46 | 69 | 19 | 24 | FC(F)(F)c1cc(NC[C@H]2CCCCN2)c2cn[nH]c2c1 |  |  |  |  |  |  |
| 41 | 22 | > 100 | 17 | 7 | > 100 | N#Cc1cc(NCc2ccccc2[N+](=O)[O-])c2cn[nH]c2c1 |  |  |  |  |  |  |
| 93 | 90 | 1.7 | 77 | 50 | 18 | O=[N+]([O-])c1cc(Cl)ccc1CNc1cc(C(F)(F)F)cc2[nH]ncc12 | 5.82 | > 20 | 10.3 | > 20 | 4.13 | 8.04 |
| 97 | 91 | 1.6 | 95 | 72 | 7.95 | O=[N+]([O-])c1cccc(CNc2cc(Br)cc3[nH]ncc23)c1 | 23.6 | > 20 | > 20 | > 20 | > 20 | > 20 |
| 64 | 47 | > 100 | 61 | 52 | 61 | O=[N+]([O-])c1ccc(CNc2cc(C(F)(F)F)cc3[nH]ncc23)cc1 |  |  |  |  |  |  |
| 95 | 87 | 1.04 | 79 | 48 | 18.5 | COc1cc(CNc2cc(Br)cc3[nH]ncc23)c([N+](=O)[O-])cc1OC | 2.97 | 15.2 | 6.11 | > 20 | > 20 | > 20 |
| 25 | 17 | > 100 | 4 | 11 | > 100 | O=C1NC(=O)c2c(NCc3ccccc3[N+](=O)[O-])cccc21 |  |  |  |  |  |  |
| 94 | 81 | 1.69 | 17 | 11 | > 100 | O=C(O)c1cccc(CNc2cc(C(F)(F)F)cc3[nH]ncc23)c1 |  |  |  |  |  |  |
| 49 | 5 | > 100 | 22 | 10 | > 100 | FC(F)(F)c1cc(NCC2CNC2)c2cn[nH]c2c1 |  |  |  |  |  |  |
| 64 | 52 | 38.9 | 83 | 67 | 8.04 | O=[N+]([O-])c1ccccc1CNc1cc(Br)cc2[nH]ncc12 |  |  |  |  |  |  |
| 82 | 60 | 5.17 | 69 | 45 | > 100 | O=[N+]([O-])c1cccc(CNc2cc(C(F)(F)F)cc3[nH]ncc23)c1 |  |  |  |  |  |  |
| 5 |  | > 100 | 3 |  | > 100 | FC(F)(F)c1cc(NCc2cccc3sccc23)c2cn[nH]c2c1 |  |  |  |  |  |  |
| 88 | 64 | 8.05 | 81 | 32 | 18.7 | FC(F)(F)c1cc(NC[C@@H]2CCCCN2)c2cn[nH]c2c1 | 19.9 | > 20 | 21.7 | > 20 | > 20 | > 20 |
| 65 |  | > 100 | 8 |  | > 100 | O=C(O)CNc1cccc(CNc2cc(C(F)(F)F)cc3[nH]ncc23)c1 |  |  |  |  |  |  |
| 98 | 96 | 0.79 | 93 | 63 | 58 | CS(=O)(=O)c1ccc(CNc2cc(C(F)(F)F)cc3[nH]ncc23)c([N+](=O)O)c1 | > 20 | > 20 | > 20 | > 20 | > 20 | > 20 |
| 32 | 35 | > 100 | 13 | 7 | > 100 | CC(C)n1ncc2c(NCc3ccccc3[N+](=O)[O-])cc(C(F)(F)F)cc21 |  |  |  |  |  |  |
| 29 | 23 | > 100 | 9 | 8 | > 100 | O=C1NCc2c(NCc3ccccc3[N+](=O)[O-])cccc21 |  |  |  |  |  |  |

| inhibition [1] [%] | inhibition [2] [%] | IC50 [3] [µM] | inhibition [4] [%] | inhibition [5] [%] | IC50 [6] [µM] | Structure (SMILES) | IC50 (HepG2) [µM] | IC50 [7] [µM] | IC50 (H22) [µM] | IC50 (B16) [µM] | IC50 (MOLM-13) [µM] | IC50 (Jurkat) [µM] |
| --- | --- | --- | --- | --- | --- | --- | --- | --- | --- | --- | --- | --- |
| 20 | 16 | > 100 | 47 | 11 | > 100 | COC(=O)c1cc(NCc2ccccc2[N+](=O)[O-])c2cn[nH]c2c1 |  |  |  |  |  |  |
| 29 | 25 | > 100 | 30 | 9 | > 100 | NCCn1ncc2c(NCc3ccccc3[N+](=O)[O-])cc(C(F)(F)F)cc21 |  |  |  |  |  |  |
| 88 | 85 | 1.46 | 64 | 31 | > 100 | O=[N+]([O-])c1cc(Br)c(F)cc1CNc1cc(C(F)(F)F)cc2[nH]ncc12 | 1.96 | 15 | 1.85 | 13.8 | 4.27 | 2.82 |
| 84 | 55 | 6.09 | 83 | 34 | 9.58 | FC(F)(F)c1cc(NC[C@H]2CCCN2)c2cn[nH]c2c1 | 16.2 | > 20 | 19.7 | > 20 | > 20 | > 20 |
| 87 | 45 | 17 | 65 | 25 |  | O=[N+]([O-])c1ccccc1CNc1cccc2[nH]ncc12 |  |  |  |  |  |  |
| 48 | 35 | > 100 | 9 | 4 | > 100 | O=[N+]([O-])c1ccccc1CNc1cc(Br)cc2cn[nH]c12 |  |  |  |  |  |  |
| 91 | 71 | 4.87 | 46 | 33 | > 100 | CNC(=O)c1cccc(CNc2cc(C(F)(F)F)cc3[nH]ncc23)c1 |  |  |  |  |  |  |
| 91 | 75 | 2.55 | 81 | 37 | 36.7 | Oc1ccc(CNc2cc(C(F)(F)F)cc3[nH]ncc23)cc1 |  |  |  |  |  |  |
| 97 | 92 | 2.68 | 95 | 83 | 6.02 | Oc1ccc(CNc2cc(C(F)(F)F)cc3[nH]ncc23)c(Cl)c1 |  |  |  |  |  |  |
| 23 |  | > 100 | 2 |  | > 100 | OC1CCCC(Nc2cccc(CNc3cc(C(F)(F)F)cc4[nH]ncc34)c2)C1 (stereo unspecified) |  |  |  |  |  |  |
| 55 | 49 | 97 | 20 | 10 | > 100 | O=[N+]([O-])c1cc(OCc2ccccc2)ccc1CNc1cc(C(F)(F)F)cc2[nH]ncc12 |  |  |  |  |  |  |
| 84 | 67 | 19.1 | 51 | 23 | > 100 | FC(F)(F)c1cc(NCc2cccc(Br)c2)c2cn[nH]c2c1 |  |  |  |  |  |  |
| 89 | 68 | 2.51 | 55 | 24 | > 100 | Nc1cccc(CNc2cc(C(F)(F)F)cc3[nH]ncc23)c1 |  |  |  |  |  |  |
| 93 | 87 | 2.23 | 87 | 63 | 6.97 | O=[N+]([O-])c1ccc(CNc2cc(Br)cc3[nH]ncc23)cc1 | > 20 | > 20 | > 20 | > 20 | > 20 | > 20 |
| 69 | 54 | > 100 | 38 | 22 | > 100 | O=[N+]([O-])c1ccc2[nH]c(CNc3cc(C(F)(F)F)cc4[nH]ncc34)cc2c1 |  |  |  |  |  |  |
| 74 | 40 | 12.2 | 49 | 25 | > 100 | FC(F)(F)c1cccc(CNc2cc(C(F)(F)F)cc3[nH]ncc23)c1 |  |  |  |  |  |  |
| 94 | 96 | 0.17 | 69 | 45 | 60 | O=[N+](O)c1c(Cl)cccc1CNc1cc(C(F)(F)F)cc2[nH]ncc12 | > 20 | > 20 | > 20 | > 20 | 7.69 | > 20 |
